Source: patent publication US7358046B2, “Sensitivity test to predict efficacy of anti-cancer therapies” (Canbas Co., Ltd., priority 2003, dated 2008)
“Also recorded” adds a separate entry of the source. Non-standard residues stand in square brackets, D forms with d. No end group written: not given here. dPhe(F5) = N[C@H](Cc1c(F)c(F)c(F)c(F)c1F)C(=O)O; dBpa = N[C@H](Cc1ccc(C(=O)c2ccccc2)cc1)C(=O)O; dCha = N[C@H](CC1CCCCC1)C(=O)O

Columns and labels:
HCT-116 cells = assay: In vitro sensitivity test: DNA content of cells by flow cytometry; assay type: cell-based, human; settings: for change in DNA content (cell cycle distribution) of HCT-116 cells: compound alone, 2, 10, or 50 μM for 3 hr
Method: Cells from a human colon cancer derived cell line HCT-116 were used in an in vitro sensitivity test that measures DNA content of cells by flow cytometry, and in an in vivo efficacy test that measures xenograft tumor growth. The effects of conventional anti-cancer therapy CPT-11, novel candidate anti-cancer therapy CBDC402, a combination of the two compounds, or control treatments (vehicle), were measured in each test system and compared.
In vitro sensitivity test: HCT-116 cells (from ATCC) were cultured in McCOY5A medium (Sigma Chemical Co.) with L-glutamine (Sigma Chemical Co.), penicillin-streptomycin, and 10% fetal calf serum at 37° C. in 5% CO2/air. Cultured cells (at 1.6×10^5) were pelleted by centrifugation, and then re-suspended and incubated in 300 μl Krishan's solution (0.1% sodium citrate, 50 μg/ml propidium iodide, 20 μg/ml RNase A, 0.5% Nonidet P-40) for 1 h at 4° C. The quantity of DNA in each cell was determined using a fluorescence activated cell scanner (FACScan® Beckton Dickinson, Mountain View, Calif.), and results were analyzed using CELLQuest® software (Beckton Dickinson).
The DNA content of each cell was measured at 24 hr.
In vitro sensitivity test: The in vitro sensitivity test using HCT-116 cells and flow cytometry was carried out as described above, with the modification that CBDC004 was used instead of CBDC402. The DNA content of each cell was measured at 24 hr.

HCT-116 xenografts = assay: Surrogate in vivo efficacy test: HCT-116 xenograft tumor assay; parameters: species or system SCID mice; settings: for HCT-116 xenograft tumor growth, combination: intraperitoneal, two weeks
Method: HCT-116 cells were implanted by subcutaneous injection of the cells into male SCID mice (Severe Combined Immunodeficient mice, Charles River Lab., Wilmington, Mass.). Treatment was initiated when the tumor size reached about 0.2 cm^3 in size. The size of tumors was measured three times per week, using calipers. Tumor volumes were calculated as follows: volume (cm^3)=[width (mm)^2×length (mm)]/2000. Mean tumor sizes (volumes) with standard deviation were plotted (FIG. 1b). Animals were housed in accordance with guidelines from American Association for Laboratory Animal Care and the protocols were approved by institutional animal care committee of CanBas Co. Ltd
(§1) Established HCT-116 xenografts (0.2 cm^3) in SCID mice were treated for two weeks by intraperitoneal injection of the following: vehicle alone (DMSO, two times per week), CBDC402 (40 mg/kg; two times per week), CPT-11 (20 mg/kg; one time per week) or the combination of CBDC402 (two times per week) and CPT-11 (one time per week). […] The results correlate with the prediction based on results from the in vitro sensitivity test using CBDC004 as described above.
Surrogate in vivo efficacy test: A surrogate in vivo efficacy test measuring the effects of various compounds on HCT-116 xenograft tumor growth was carried out as described above, with the modification that CBDC004 was used instead of CBDC402.
as §1, with “week), CBDC004 (30” for “week), CBDC402 (40”, “mg/kg; three” for “mg/kg; two”

MIAPaCa2 cells = assay: In vitro sensitivity test: laser scanning cytometry of cultured xenograft tumor cells on chamber slides; settings: for anti-cancer efficacy in vitro, human cancerous cells in culture: each compound alone (summary of Example 3)
Method: As a simulation of the sensitivity test for the clinical situation, established xenograft tumors of MIAPaCa2 cells in SCID mice were extracted from the mice and cultured in vitro in the presence or absence of a conventional anti-cancer therapy and a novel candidate anti-cancer therapy CBP501 (SEQ ID NO: 26), according to the protocol as follows.
Xenograft tumors of MIAPaCa2 cells were excised from xenograft tumor bearing mice and place in a 10 cm plate with 10 ml of complete culture medium (DMEM (Dainihonseiyaku Co., Osaka, Japan) with 2.5% horse serum (Invitrogen Co., Carlsbad, Calif.) for MIAPaCa2 with 10% fetal calf serum (Equitech-bio, Kerrville, Tex.) at 37° C. with 5% CO2/air). The tissue was sliced into small pieces and non-tumor tissue was removed to the extent possible. The sliced pieces were placed in another 10 cm plate with complete culture medium and minced with a razor blade. The cells were then dispersed in culture medium by pipetting, and centrifuged for 5 min at 1200×g.
The cell pellet was then incubated in buffer containing collagenase for 2 hours at 37° C. After centrifuging a second time, the cell pellet was incubated in buffer containing trypsin for 5 min at room temperature, then suspended in the culture medium, passed through nylon mesh, and re-centrifuged. Pelleted cells were resuspended and the resuspended cells were seeded onto chamber slides and cultured overnight in an incubator.
Cells in chamber slides were treated with anti-cancer therapies or control treatments as follows: control solution, CBP501 (SEQ ID NO: 26) at 10 μM, cisplatin (CDDP) at 10 μg/ml, or a combination of CBP501 and cisplatin were added to chamber slides and incubated for 3 hours. Culture medium was changed and chamber slides were cultured for an additional 24 to 48 hours.
At the beginning of the designated day (day 3, 4, or 5), medium was aspirated from chamber slides and cells were fixed by addition of 70% ethanol followed by incubation for 15 minutes at room temperature. The supernatant was discarded, and phosphate buffered saline with 50 μg/ml propidium iodide (Sigma, St. Louis, Mo.) with 0.1% RNase (Sigma) was added to the slides and incubated for 30 minutes at room temperature. Cells on the chamber slides were then analyzed by Laser Scanning Cytomery (LSC® System, with Olympus microscope).

[1] = test system: MIAPaCa2 cells xenograft tumors; assay: Surrogate in vivo efficacy test: MIAPaCa2 xenograft tumor assay; parameters: species or system SCID mice
Method: Surrogate in vivo efficacy test: A surrogate in vivo efficacy test using the xenograft tumor assay was carried out as described above, with modifications. MIAPaCa2 cells (n=5) were implanted by subcutaneous injection of the cells to male SCID mice (Charles River Lab., Wilmington, Mass.). Treatment was initiated when tumor size reached about 0.15 cm^3 in size. The size of tumors was measured three times per week, using calipers. Tumor volumes were calculated as follows: volume (cm^3)=[width (mm)^2×length (mm)]/2000. Mean tumor sizes (volumes) with standard deviation were plotted (FIG. 1b). Animals were housed in accordance with guidelines from American Association for Laboratory Animal Care and the protocols were approved by institutional animal care committee of CanBas Co. Ltd.
Established […] xenografts (0.2 cm^3) in SCID mice were treated two times each week for two weeks (i.e., on day 1, 5, 8, and 12) by intraperitoneal injection of the following: vehicle alone (DMSO); CBP501 (120 mg/m^2); cisplatin (CDDP, 3 mg/kg); a combination of CBP501 (30 mg/m^2) and cisplatin (CDDP, 3 mg/kg); a combination of CBP501 (60 mg/m^2) and cisplatin (CDDP, 3 mg/kg); or CBP501 (120 mg/m^2) and cisplatin (CDDP, 3 mg/kg).

[2] = compound 2, 10, 50 μM for 3 hr in combination with CPT-11 50 μM for 3 hr, measured at 24 hr
[3] = CPT-11 alone, 50 μM for 3 h, DNA content measured at 24 hr
[4] = CBP501 10 μM combined with cisplatin 10 μg/ml, 3 hours, then cultured 24 to 48 hours

COc1ccc(OC(=O)c2ccc(Cl)cc2)cc1 [CBDC004, 4-Chloro-benzoic acid 4-methoxy-phenyl ester]
change in DNA content / G2/M and G1 populations of HCT-116 cells, combination treatment (HCT-116 cells; [2]): did not change the DNA content more than CPT-11 alone
change in DNA content (cell cycle distribution) of HCT-116 cells (HCT-116 cells; DNA content measured at 24 hr): did not alter the DNA content
HCT-116 xenograft tumor growth (HCT-116 xenografts; CBDC004 alone, 30 mg/kg intraperitoneal, three times per week for two weeks): did not suppress tumor growth
HCT-116 xenograft tumor growth, combination (HCT-116 xenografts; CBDC004 in combination with CPT-11 (one time per week)): did not suppress tumor growth

Cc1ccc(OC(=O)c2ccc(Br)cc2)cc1 [CBDC402, 4-Bromo-benzoic acid p-tolyl ester]
change in DNA content / G2/M and G1 populations of HCT-116 cells, combination treatment (HCT-116 cells; [2]): decrease in the accumulation of both the CPT-11-induced G2/M population and G1 population
subG1 (dead cell) population of HCT-116 cells, combination treatment (HCT-116 cells; [2]): increase in the subG1 (dead cell) population
change in DNA content (cell cycle distribution) of HCT-116 cells (HCT-116 cells; DNA content measured at 24 hr): did not alter the DNA content
HCT-116 xenograft tumor growth, combination (HCT-116 xenografts; CBDC402 (two times per week) plus CPT-11 (one time per week)): strong tumor suppressive activity
HCT-116 xenograft tumor growth (HCT-116 xenografts; CBDC402 alone, 40 mg/kg intraperitoneal, two times per week for two weeks): did not suppress tumor growth significantly

CCc1c2c(nc3ccc(OC(=O)N4CCC(N5CCCCC5)CC4)cc13)-c1cc3c(c(=O)n1C2)COC(=O)[C@]3(O)CC [CPT-11, irinotecan, reference compound]
change in cell cycle distribution (G1, G2/M populations) of HCT-116 cells (HCT-116 cells; [3]): changed the cell cycle distribution dramatically
sub-G1 (dead cell) population of HCT-116 cells (HCT-116 cells; [3]): no increase in the sub-G1 population
HCT-116 xenograft tumor growth (HCT-116 xenografts; CPT-11 alone, 20 mg/kg intraperitoneal, one time per week for two weeks): moderate tumor suppressive activity

N.N.[Cl][Pt][Cl] [cisplatin, reference compound]
change in cell cycle distribution of cultured MIAPaCa2 xenograft tumor cells (MIAPaCa2 cells; cisplatin alone, 10 μg/ml for 3 hours, then cultured 24 to 48 hours): accumulation of cells in G2/M phase
anti-cancer efficacy in vitro, human cancerous cells in culture (MIAPaCa2 cells): some anti-cancer efficacy
xenograft tumor growth ([1]; cisplatin alone, 3 mg/kg intraperitoneal, two times each week for two weeks): little or no effect on tumor growth

(d-Bpa)(d-Ser)(d-Trp)(d-Ser)(d-Phe-2,3,4,5,6-F)(d-Cha)(d-Arg)(d-Arg)(d-Arg)(d-Gln)(d-Arg)(d-Arg) ([dBpa][dS][dW][dS][dPhe(F5)][dCha][dR][dR][dR][dQ][dR][dR]) [CBP501]
G1 and G2/M peaks of cultured MIAPaCa2 xenograft tumor cells, combination (MIAPaCa2 cells; [4]): dramatically decreased both the G1 and G2/M peaks
sub-G1 population of cultured MIAPaCa2 xenograft tumor cells, combination (MIAPaCa2 cells; [4]): increased the sub-G1 population
change in cell cycle distribution of cultured MIAPaCa2 xenograft tumor cells (MIAPaCa2 cells; CBP501 alone, 10 μM for 3 hours, then cultured 24 to 48 hours): cell cycle distribution was not significantly altered
cell death in the population of tumor cells by direct observation of cell morphology, combination (MIAPaCa2 cells; CBP501 combined with cisplatin): dramatic increase in cell death
anti-cancer effect in vitro, human cancerous cells in culture, combination (MIAPaCa2 cells; CBP501 combined with cisplatin (summary of Example 3)): more pronounced anti-cancer effect
anti-cancer efficacy in vitro, human cancerous cells in culture (MIAPaCa2 cells): some anti-cancer efficacy
xenograft tumor growth, combination ([1]; CBP501 (30, 60 or 120 mg/m^2) combined with cisplatin 3 mg/kg, intraperitoneal, two times each week for two weeks): more effective than either compound alone; also recorded: significant inhibition of xenograft tumor growth
xenograft tumor growth ([1]; CBP501 alone, 120 mg/m^2 intraperitoneal, two times each week for two weeks (day 1, 5, 8, 12)): little or no effect on tumor growth; also recorded: did not significantly inhibit xenograft tumor growth
